We go through 13 molecules from US5587473A, “7-acyl-3-(substituted carbamoyloxy) cephem compounds and process for their preparation” (Eisai Co., Ltd., priority 1990, dated 1996).

≈ marks a conversion by molar mass, not a printed value.

Data set [1] relates to Haemophilus influenzae IID1638. Briefly: MIC against Haemophilus influenzae IID1638. The settings on record: Table 1. In kind it is cell-based.
For another data set, the system named is Escherichia coli NIHJ. Put plainly: MIC against Escherichia coli NIHJ. In kind it is cell-based. To be noted: Table 1.
Data set [2] concerns Klebsiella pneumoniae IID875. Put plainly: MIC against Klebsiella pneumoniae IID875. In kind it is cell-based. To be noted: Table 1.
In data set [3] the test system is Staphylococcus aureus 209-P. Put plainly: MIC against Staphylococcus aureus 209-P. In kind it is cell-based. To be noted: Table 1.
The test system of data set [4] is Serratia marcescens IID620. Put plainly: MIC against Serratia marcescens IID620. In kind it is cell-based. The settings on record: Table 1.
In data set [5] the test system is Morganella morganii IID601. Briefly: MIC against Morganella morganii IID601. In kind it is cell-based. The settings on record: Table 1.
Data set [6] in a line: Bioavailability by oral administration in mice (urinary excretion). In kind it is in vivo. The settings on record: mouse, urine, 20 mg/kg, CMC-Na suspension; for dose excreted at 6 h: collected during 6 hours, read-out: Recovery in urea. On the procedure: Certain representative compounds according to the present invention were each suspended in a CMC-Na solution. The resulting suspension was administered orally to mice at the dosage of 20 mg/kg. Urea excreted during 6 hours after the administration was collected.

In data set [7] the test system is Haemophilus influenzae E35147. Briefly: MIC against Haemophilus influenzae E35147. In kind it is cell-based. The settings on record: Table 4.
Data set [8] deals with Haemophilus influenzae E35147. Put plainly: Treatment of respiratory-infected mice, Haemophilus influenzae E35147. In kind it is in vivo, mouse infected with Haemophilus influenzae. To be noted: mouse, oral, 40 mg/kg, 1 hour after inoculation of 4.3 × 10^5 CFU/mouse; counted 24 hours after infection; limit 1.48, no colony = 1; control 5.73 ± 0.58. On the procedure:
(§1) A bacterium-containing solution was inoculated into the nasal cavity of each mouse, followed by the oral administration of a suspension of one of the compounds in a CMC-Na solution one hour later where the bacterium was Haemophilus influenzae but four hours later where the bacterium was Klebsiella pneumoniae. The number of intrapulmonary viable cells of the bacterium was counted upon an elapsed time of 24 hours after the infection. The measurement limit is represented by the following formula. Log CFU/Lung=1.48 wherein CFU is the colony forming unit. When no colony was observed, the bacterium was regarded as having been eradicated and Log CFU/Lung was calculated to be 1.

The subject of data set [9] is Klebsiella pneumonia E02033. Briefly: MIC against Klebsiella pneumonia E02033. In kind it is cell-based. The settings on record: Klebsiella pneumoniae, Table 3.
The subject of data set [10] is Klebsiella pneumonia E02033. Briefly: Treatment of respiratory-infected mice, Klebsiella pneumonia E02033. In kind it is in vivo, mouse infected with Klebsiella pneumonia. The settings on record: mouse, oral, 10 mg/kg; for Intrapulmonary viable cells: 4 hours after inoculation of 1.4 × 10^3 CFU/mouse, counted 24 hours after infection, limit 1.48, no colony = 1, control 7.31 ± 0.73; for Eradication rate: inoculum 1.4 × 10^3 CFU/mouse, 24 hours after infection, control 0. On the procedure: as §1

Regarding “1-(Isopropoxycarbonyloxy)ethyl 7β-[2-(2-aminothiazol-4-yl)-2-(Z)-acetoxyiminoacetamido]-3-N,N-dimethylcarbamoyloxymethyl-3-cephem-carboxylate hydrochloride [Example 40]”, the MIC stood at 0.2 µg/mL in [1]; 0.05 µg/mL with Escherichia coli NIHJ; 0.05 µg/mL in data set [2]; 0.2 µg/mL in data set [3]; 0.1 µg/mL in [4]; 0.05 µg/mL in data set [5].
With “1-(Isopropoxycarbonyloxy)ethyl 7β-[2-(2-aminothiazol-4-yl)-2-(Z)-hydroxyiminoacetamido]-3-N,N-dimethylcarbamoyloxymethyl-3-cephem-carboxylate hydrochloride [Example 41]”, the MIC in data set [1] came to 0.2 µg/mL; in the data set with Escherichia coli NIHJ it was 0.2 µg/mL; in [2], 0.2 µg/mL; in data set [3], 0.2 µg/mL; in [4], 0.1 µg/mL; in data set [5], 0.1 µg/mL.
For the molecule “7-Amino-3-N,N-dimethylcarbamoyloxymethyl-3-cephem-4-carboxylic acid [Example 39]”, the MIC in [1] stood at 0.2 µg/mL; against Escherichia coli NIHJ, 0.05 µg/mL; in data set [2], 0.025 µg/mL; in data set [3], 0.2 µg/mL; in data set [4], 0.05 µg/mL; in [5], 0.05 µg/mL.
As usually defined, the bioavailability is the share of a dose that reaches the circulation, judged against a reference dose that is usually intravenous. Low readings indicate little systemic uptake, high ones much systemic uptake. Turning to `CC(C)(C)C(=O)OCOC(=O)C1=C(COC(N)=O)CS[C@@H]2C(NC(=O)/C(=N\O)c3csc(N)n3)C(=O)N12` (some centres unmarked) [Compound B, Pivaloyloxymethyl 7-[(Z)-2-(2-aminothiazol-4-yl)-2-hydroxyiminoacetamido]-3-carbamoyloxymethyl-3-cephem-4-carboxylate, reference compound], in data set [6], the bioavailability at 6 h came to 17% and the dose excreted at 6 h came out at 11%.
On to `CC(C)OC(=O)OC(C)OC(=O)C1=C(COC(N)=O)CS[C@@H]2C(NC(=O)/C(=N\O)c3csc(N)n3)C(=O)N12` (some centres unmarked) [Compound C, 1-(Isopropyloxycarbonyloxy)ethyl 7-[(Z)-2-(2-aminothiazol-4-yl)-2-hydroxyiminoacetamido]-3-carbamoyloxymethyl-3-cephem-4-carboxylate, reference compound], for which the MIC in data set [7] is 0.8 µg/mL (≈ 1.4 µM). Moreover, in [6], the bioavailability at 6 h turned out to be 7% and the dose excreted at 6 h was 4.5%. Besides, in [8], the Intrapulmonary viable cells turned out to be 5.50 ± 0.61 Log CFU/Lung.
For `CO/N=C(\C(=O)NC1C(=O)N2C(C(=O)OCOC(=O)C(C)(C)C)=C(COC(N)=O)CS[C@H]12)c1csc(N)n1` (some centres unmarked) [Compound D, Pivaloyloxymethyl 7-[(Z)-2-(2-aminothiazol-4-yl)-2-methoxyiminoacetamido]-3-carbamoyloxymethyl-3-cephem-4-carboxylate, reference compound], in data set [6], the bioavailability at 6 h was determined as 17% and the dose excreted at 6 h came to 10.4%.
With `COCC1=C(C(=O)OC(C)OC(=O)OC(C)C)N2C(=O)C(NC(=O)/C(=N\OC)c3csc(N)n3)[C@H]2SC1` (some centres unmarked) [Compound E, 1-(Isopropyloxycarbonyloxy)ethyl 7-[(Z)-2-(2-aminothiazol-4-yl)-2-methoxyiminoacetamido]-3-methoxymethyl-3-cephem-4-carboxylate], the MIC in data set [9] was 0.2 µg/mL (≈ 0.359 µM). Besides, in data set [10], the Intrapulmonary viable cells was determined as 4.26 ± 0.62 log CFU/lung and the Eradication rate amounted to 0%.
For `C=CC1=C(C(=O)O)N2C(=O)C(NC(=O)/C(=N\O)c3csc(N)n3)[C@H]2SC1` (some centres unmarked) [Compound F, 7-[(Z)-2-(2-aminothiazol-4-yl)-2-hydroxyiminoacetamido]-3-vinyl-3-cephem-4-carboxylic acid], the MIC came out at 0.8 µg/mL (≈ 2.02 µM) in [7] and 0.2 µg/mL (≈ 0.506 µM) in data set [9]. The results for the Intrapulmonary viable cells in data set [10] and in data set [8] were 6.25 ± 0.74 log CFU/lung and 5.16 ± 0.73 Log CFU/Lung, respectively. The same molecule registered an Eradication rate in data set [10] of 0%.
As to `CN(C)C(=O)OCC1=C(C(=O)OCOC(=O)C(C)(C)C)N2C(=O)C(NC(=O)/C(=N\O)c3csc(N)n3)C2SC1` (centres unmarked) [Example 14, Pivaloyloxymethyl 7-[(Z)-2-(2-aminothiazol-4-yl)-2-hydroxyiminoacetamido]-3-N,N-dimethylcarbamoyloxymethyl-3-cephem-4-carboxylate], in data set [6], the bioavailability at 6 h came out at 38% and the dose excreted at 6 h was determined as 18.2%.
On to `CC(C)OC(=O)OC(C)OC(=O)C1=C(COC(=O)N(C)C)CSC2C(NC(=O)/C(=N\O)c3csc(N)n3)C(=O)N12` (centres unmarked) [Example 20, 1-(Isopropyloxycarbonyloxy)ethyl 7-[(Z)-2-(2-aminothiazol-4-yl)-2-hydroxyiminoacetamido]-3-N,N-dimethylcarbamoyloxymethyl-3-cephem-4-carboxylate], for which the MIC in [7] and in [9] was 0.1 µg/mL (≈ 0.166 µM) in each case. Besides, the bioavailability at 6 h in [6] is 46%. Further, the dose excreted at 6 h in data set [6] was 22%. For the same molecule, the Intrapulmonary viable cells in data set [10] was 1.66 ± 1.02 log CFU/lung; in data set [8], 3.51 ± 0.37 Log CFU/Lung. Moreover, the Eradication rate in data set [10] is given as 50%.
As to `CO/N=C(\C(=O)NC1C(=O)N2C(C(=O)OCOC(=O)C(C)(C)C)=C(COC(=O)N(C)C)CSC12)c1csc(N)n1` (centres unmarked) [Example 24, Pivaloyloxymethyl 7-[(Z)-2-(2-aminothiazol-4-yl)-2-methoxyiminoacetamido]-3-N,N-dimethylcarbamoyloxymethyl-3-cephem-4-carboxylate], in data set [6], the bioavailability at 6 h is 34% and the dose excreted at 6 h was 20%.
Take `CC(=O)O/N=C(\C(=O)NC1C(=O)N2C(C(=O)OC(C)OC(=O)OC(C)C)=C(COC(=O)N(C)C)CSC12)c1csc(N)n1` (stereo not drawn) [Example 43, 1-(Isopropoxycarbonyloxy)ethyl 7β-[2-(2-aminothiazol-4-yl)-2-(Z)-acetoxyiminoacetamido]-3-N,N-dimethylcarbamoyloxymethyl-3-cephem-carboxylate]: in data set [7], the MIC was determined as 0.2 µg/mL (≈ 0.311 µM). Further, in data set [8], the Intrapulmonary viable cells turned out to be 4.86 ± 0.60 Log CFU/Lung.
For the molecule “Benzhydryl 7-formamido-3-N,N-dimethylcarbamoyloxymethyl-3-cephem-4-carboxylate [Example 38]”, the MIC was 0.2 µg/mL in data set [1]; 0.025 µg/mL in the data set with Escherichia coli NIHJ; 0.025 µg/mL in [2]; 0.1 µg/mL in data set [3]; 0.05 µg/mL in data set [4]; 0.05 µg/mL in [5].
